Columns and labels:
[1] = test system: MET-activated tumor models; settings: preclinical ref 21; cited from earlier work
OCT-2 [2] = biological target: T1, OCT-2 (Homo sapiens, UniProt O15244); experiment: Plasma tryptophan and kynurenine levels to explore OCT-2 inhibition; type: in vivo
T1 construct: from tissue; host or cells: patients in vivo (endogenous transporter; serum, plasma and urine markers measured)
T1 sequence (O15244 1-555): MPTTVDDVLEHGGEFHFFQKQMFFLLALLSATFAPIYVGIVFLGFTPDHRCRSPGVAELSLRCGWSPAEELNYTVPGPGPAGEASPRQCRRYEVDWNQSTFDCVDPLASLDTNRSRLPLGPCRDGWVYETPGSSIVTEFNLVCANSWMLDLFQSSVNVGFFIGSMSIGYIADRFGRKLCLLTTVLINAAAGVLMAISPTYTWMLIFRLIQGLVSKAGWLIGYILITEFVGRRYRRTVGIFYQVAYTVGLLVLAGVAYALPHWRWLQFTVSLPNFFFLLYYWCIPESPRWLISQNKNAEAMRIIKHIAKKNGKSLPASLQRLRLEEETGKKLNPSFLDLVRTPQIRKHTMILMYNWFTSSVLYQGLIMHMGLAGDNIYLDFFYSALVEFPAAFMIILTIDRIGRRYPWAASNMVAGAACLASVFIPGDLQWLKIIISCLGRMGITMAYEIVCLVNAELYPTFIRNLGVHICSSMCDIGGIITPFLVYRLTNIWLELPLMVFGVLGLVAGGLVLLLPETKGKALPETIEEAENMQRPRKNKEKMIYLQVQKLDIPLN
Experimental: (§1) The starting dose was 100 mg BID.

OCT-2 [3] = biological target: T1, OCT-2; experiment: Renal function markers (creatinine, Cystatin C, KIM1) as on-target OCT-2 inhibition; type: in vivo
Experimental: as §1

phosphorylated MET = biological target: T2, phosphorylated MET (Homo sapiens, UniProt P08581, DEL963-1009); experiment: Paired biopsy analysis, total and phosphorylated MET by immunohistochemistry; type: in vivo; settings: one patient, NSCLC with MET exon 14 skipping mutation, 200 mg BID
T2 construct: from tissue; host or cells: paired tumour biopsies (baseline and on-treatment) of an NSCLC patient
Experimental: Analysis was performed using PKSolver to define Cmax, trough concentration (Ctrough), AUC∞, AUC0-last, Vd, clearance, elimination half-life (t½), and Tmax of OMO-1.[24] In the paired biopsy analysis, expression of total MET and phosphorylated MET was performed by immunohistochemistry.

[4] = test system: EGFR mutated NSCLC with acquired MET amplification; type: in vivo, human; settings: one patient, 200 mg BID with EGFR TKI; led to interruption
Text: Module 2 (OMO-1 in combination with EGFR TKI) investigated the preliminary efficacy of OMO-1 in patients with activating EGFR mutated NSCLC and an acquired MET amplification after EGFR TKI treatment.

[5] = parameters: method as in doi:10.1158/1538-7445.am2015-ct309; settings: healthy human volunteers ref 26; cited from earlier work

SMILES: FC(F)(c1ccc2ncccc2c1)c1nnc2ccc(-c3ccncc3)nn12 [OMO-1]
- tumor growth [1]: complete inhibition of tumor growth
- median kynurenin level (OCT-2 [2]; 8 h post-dose, IQR 396-559, pre-dose 509 ng/mL, P = .57): 471 ng/mL
- mean kyn/trp ratio (OCT-2 [2]; 8 h post-dose, pre-dose 57, P < .001): 49
- mean tryptophan plasma level (OCT-2 [2]; cycle 1 day 1, 8 h post-dose, pre-dose 9475 ng/mL, P = .014, 30 patients Module 1): 10 605 ng/mL
- changes in plasma tryptophan levels and kyn/trp ratio, dependence on dose or Cmax (OCT-2 [2]; in vivo): not dose or Cmax dependent
- cystatin C and KIM-1, additional markers for renal function (OCT-2 [3]; monotherapy OMO-1): did also not identify any significant renal function issues
- overall mean creatinine levels (OCT-2 [3]; throughout the study): within the normal ranges
- phosphorylated MET in on-treatment biopsy (phosphorylated MET): near-complete inhibition
- total MET levels in on-treatment biopsy (phosphorylated MET): without affecting total MET levels
- serum Cystatin C increase from baseline [4]: > 1.5 fold
- renal toxicity [5]: no renal toxicity was observed
